Assay results as given in the Kinase Knowledgebase extract (Sharma et al. 2016).
Values joined by “and” are separate entries in the source; they are usually repeats but may differ in a detail not shown here. Identical values can stand only once.

biological target: PIK3CA (human) (UniProt P42336); assay: Inhibition of PIK3CA Kinase Activity
Sequence (P42336 whole entry, looked up): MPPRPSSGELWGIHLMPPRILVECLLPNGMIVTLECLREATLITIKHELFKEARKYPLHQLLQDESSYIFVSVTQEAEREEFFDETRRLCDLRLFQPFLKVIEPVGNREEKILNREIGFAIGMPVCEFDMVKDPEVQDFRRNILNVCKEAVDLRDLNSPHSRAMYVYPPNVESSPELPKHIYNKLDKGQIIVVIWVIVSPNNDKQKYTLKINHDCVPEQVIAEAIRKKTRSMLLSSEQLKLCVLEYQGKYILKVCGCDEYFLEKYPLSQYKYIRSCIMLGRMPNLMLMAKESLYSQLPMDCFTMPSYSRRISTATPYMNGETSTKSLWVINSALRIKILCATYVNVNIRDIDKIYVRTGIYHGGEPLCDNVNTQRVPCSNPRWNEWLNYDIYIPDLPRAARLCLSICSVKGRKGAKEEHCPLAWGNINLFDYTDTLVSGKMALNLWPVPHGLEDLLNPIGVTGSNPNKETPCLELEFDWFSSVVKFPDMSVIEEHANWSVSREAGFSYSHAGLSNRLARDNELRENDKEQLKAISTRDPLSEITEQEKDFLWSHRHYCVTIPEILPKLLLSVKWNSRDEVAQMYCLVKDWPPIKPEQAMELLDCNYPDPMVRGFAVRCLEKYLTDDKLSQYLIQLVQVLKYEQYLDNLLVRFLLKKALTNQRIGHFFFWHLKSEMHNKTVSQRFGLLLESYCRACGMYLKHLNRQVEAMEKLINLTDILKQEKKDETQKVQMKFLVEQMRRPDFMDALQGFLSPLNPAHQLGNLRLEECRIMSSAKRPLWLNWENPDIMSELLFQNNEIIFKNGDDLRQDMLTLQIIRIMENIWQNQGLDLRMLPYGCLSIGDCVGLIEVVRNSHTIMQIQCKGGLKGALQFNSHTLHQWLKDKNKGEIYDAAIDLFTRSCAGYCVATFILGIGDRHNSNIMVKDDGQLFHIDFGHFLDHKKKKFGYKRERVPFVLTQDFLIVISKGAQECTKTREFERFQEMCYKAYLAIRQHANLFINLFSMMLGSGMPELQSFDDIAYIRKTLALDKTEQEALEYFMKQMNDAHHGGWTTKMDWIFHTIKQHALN

Compound | IC50
CC(C)n1nc(N)nc1-c1cn2c(n1)-c1ccc(-c3ccnn3C3CCN(C(C)(C)C)CC3)cc1OCC2 | 80.9 nM
Cc1nc(-c2cn3c(n2)-c2cc([C@@H](C)N4CCN(C(C)C)CC4)c(C)cc2OCC3)n(C(C)C)n1 | 90 nM
Cc1nc(-c2cn3c(n2)-c2cc([C@@H](C)N4CCN(CC(C)(C)O)CC4)c(F)cc2OCC3)n(C(C)C)n1 | 182 nM
Cc1nc(-c2cn3c(n2)-c2cc([C@H](C)N4CCN(C(C)C)CC4)c(F)cc2OCC3)n(C(C)C)n1 | 59.9 nM
Cc1nc(-c2cn3c(n2)-c2ccc(-c4cnn(C)c4[C@@H]4CCCN(C(C)C)C4)cc2OCC3)n(C(C)C)n1 | 58.8 nM
Cc1nc(-c2cn3c(n2)-c2cc(C(=O)N4CCN(C(C)(C)CO)CC4)c(F)cc2OCC3)n(C(C)C)n1 | 172 nM
CC(C)n1ncnc1-c1cn2c(n1)-c1cc([S+]([O-])C3CCN(C(C)(C)C)CC3)ccc1OCC2 (configuration not stated) | 149 nM
Cc1nc(-c2cn3c(n2)-c2cc([C@@H](C)N4CCN(C(C)(C)CO)CC4)c(F)cc2OCC3)n(C(C)C)n1 | 263 nM
Cc1nc(-c2cn3c(n2)-c2ccc(N4CCC4C4CCN(C(C)C)CC4)cc2OCC3)n(C(C)C)n1 (configuration not stated) | 15.1 nM
Cc1nc(-c2cn3c(n2)-c2ccc(-c4cnn(C)c4C4CCCN(C(C)C)C4)cc2OCC3)n(C(C)C)n1 (configuration not stated) | 57.7 nM
Cc1nc(-c2cn3c(n2)-c2cc(C(O)C4CCN(C)CC4)ccc2OCC3)n(C(C)C)n1 (configuration not stated) | 193 nM
Cc1nc(-c2cn3c(n2)-c2ccc(-c4ccnn4C4CCN(C(C)(C)C)CC4)cc2OCC3)n(C(C)C)n1 | 44.8 nM
Cc1nc(-c2cn3c(n2)-c2ccc(N4CCC[C@H]4CN4CCCC4)cc2OCC3)n(C(C)C)n1 | 6.32 nM
Cc1nc(-c2cn3c(n2)-c2ccc(N4CCC[C@H]4C4CCN(C(C)C)CC4)cc2OCC3)n(C(C)C)n1 | 20.3 nM
Cc1nc(-c2cn3c(n2)-c2ccc(OC4(CC5CC5)CNC4)cc2OCC3)n(C(C)C)n1 | 69.3 nM
Cc1nc(-c2cn3c(n2)-c2ccc(N4CCC[C@@H]4CN4CCCC4)cc2OCC3)n(C(C)C)n1 | 22 nM
Cc1nc(-c2cn3c(n2)-c2ccc(N4CCCC4C4CCN(S(C)(=O)=O)CC4)cc2OCC3)n(C(C)C)n1 (configuration not stated) | 14.6 nM
Cc1nc(-c2cn3c(n2)-c2cc([C@@H](C)N4CCN(C(C)C)CC4)c(F)cc2OCC3)n(C(C)C)n1 | 169 nM
Cc1nc(-c2cn3c(n2)-c2ccc(N4CCCC4CN(C)C)cc2OCC3)n(C(C)C)n1 (configuration not stated) | 14 nM and 6.62 nM
Cc1nc(-c2cn3c(n2)-c2ccc(-c4ccnn4C4CCCN(C(C)(C)CO)C4)cc2OCC3)n(C(C)C)n1 (configuration not stated) | 14.4 nM
Cc1nc(-c2cn3c(n2)-c2ccc(-c4cnn(C)c4C4CCCCN4CC(C)(C)O)cc2OCC3)n(C(C)C)n1 (configuration not stated) | 11.2 nM
Cc1nc(-c2cn3c(n2)-c2cc([C@H](C)N4CCN(C(C)(C)C)CC4)c(C)cc2OCC3)n(C(C)C)n1 | 24.1 nM
Cc1nc(-c2cn3c(n2)-c2ccc(N4CCC4C4CCN(C)CC4)cc2OCC3)n(C(C)C)n1 (configuration not stated) | 21.5 nM and 45.4 nM and 11.8 nM
Cc1nc(-c2cn3c(n2)-c2cc([C@H](C)N4CCN(C(C)(C)CO)CC4)c(F)cc2OCC3)n(C(C)C)n1 | 422 nM
Cc1cc2c(cc1-c1ccnn1C1CCN(C)CC1)OCCn1cc(-c3ncnn3C(C)C)nc1-2 | 173 nM

Compound | IC50
Cc1nc(-c2cn3c(n2)-c2cc(C(C)N4CCN(C)CC4)c(F)cc2OCC3)n(C(C)C)n1 (configuration not stated) | 49.1 nM
Cc1nc(-c2cn3c(n2)-c2ccc(-n4ccnc4C4CCCN(C(C)C)C4)cc2OCC3)n(C(C)C)n1 (configuration not stated) | 125 nM
Cc1nc(-c2cn3c(n2)-c2ccc(OC4(CN5CCN(C)CC5)CC4)cc2OCC3)n(C(C)C)n1 | 86.4 nM
Cc1nc(-c2cn3c(n2)-c2ccc(-c4cnn(C)c4N4CCN(C)[C@H](C(C)C)C4)cc2OCC3)n(C(C)C)n1 | 2.34 nM
Cc1nc(-c2cn3c(n2)-c2cc(-c4cnn(C)c4C4CC(N(C)C)CCO4)c(F)cc2OCC3)n(C(C)C)n1 (configuration not stated) | 9.57 nM
CC(C)n1ncnc1-c1cn2c(n1)-c1cc(CN3CCN(C(C)(C)C)CC3)ccc1OCC2 | 53.6 nM
Cc1nc(-c2cn3c(n2)-c2ccc(OC4(CC(C)C)CN(C(C)C)C4)cc2OCC3)n(C(C)C)n1 | 278 nM
Cc1nc(-c2cn3c(n2)-c2ccc(-c4cnn(C)c4C4CC(N(C)C(C)C)CCO4)cc2OCC3)n(C(C)C)n1 (configuration not stated) | 219 nM and 49.8 nM and 81.2 nM
CC(Oc1ccc2c(c1)OCCn1cc(-c3ncnn3C(C)C)nc1-2)C1CCN(C(C)C)CC1 (configuration not stated) | 6.36 nM
Cc1nc(-c2cn3c(n2)-c2ccc(-c4ncnn4C4CCN(C(C)(C)C)CC4)cc2OCC3)n(C(C)C)n1 | 837 nM
Cc1nc(-c2cn3c(n2)-c2ccc(-c4cn[nH]c4C4CCCN(C(C)C)C4)cc2OCC3)n(C(C)C)n1 (configuration not stated) | 22.9 nM and 7.46 nM
Cc1nc(-c2cn3c(n2)-c2cc(C(C)N4CCN(CC(C)(C)O)CC4)c(C)cc2OCC3)n(C(C)C)n1 (configuration not stated) | 76.2 nM
Cc1nc(-c2cn3c(n2)-c2cc([C@@H](C)N4CCN(C(C)(C)C)CC4)c(C)cc2OCC3)n(C(C)C)n1 | 52.2 nM
Cc1nc(-c2cn3c(n2)-c2ccc(-c4ccnn4C4CCCN(C5(C)COC5)C4)cc2OCC3)n(C(C)C)n1 (configuration not stated) | 44.3 nM
Cc1nc(-c2cn3c(n2)-c2ccc(OC4(c5ccccc5)CN(C(C)C)C4)cc2OCC3)n(C(C)C)n1 | 105 nM
Cc1nc(-c2cn3c(n2)-c2cc([C@H](C)N4CCN(C(C)C)CC4)c(C)cc2OCC3)n(C(C)C)n1 | 8.81 nM
CCN1CCC(C2CCCN2c2ccc3c(c2)OCCn2cc(-c4nc(C)nn4C(C)C)nc2-3)CC1 (configuration not stated) | 18.9 nM
CC(C)n1nc(N)nc1-c1cn2c(n1)-c1ccc(-c3ccnn3C3CCN(C)CC3)cc1OCC2 | 38.5 nM
Cc1nc(-c2cn3c(n2)-c2cc([C@@H](C)N4CCN(C(C)(C)CO)CC4)ncc2OCC3)n(C(C)C)n1 | 219 nM
Cc1nc(-c2cn3c(n2)-c2ccc(-c4cnn(C)c4C4CCCN(C(C)(C)CO)C4)cc2OCC3)n(C(C)C)n1 (configuration not stated) | 30.9 nM and 92.2 nM and 32 nM
Cc1nc(-c2cn3c(n2)-c2ccc(-c4ccnn4C4CCN(C(C)C)CC4)cc2OCC3)n(C(C)C)n1 | 33.4 nM
Cc1nc(-c2cn3c(n2)-c2cc([C@H](C)N4CCN(CC(C)(C)O)CC4)c(F)cc2OCC3)n(C(C)C)n1 | 724 nM
Cc1nc(-c2cn3c(n2)-c2cc([C@H](C)N4CCN(C(C)(C)CO)CC4)ncc2OCC3)n(C(C)C)n1 | 180 nM
Cc1nc(-c2cn3c(n2)-c2cnc(-c4cnn(C)c4C4CCCN(C(C)C)C4)cc2OCC3)n(C(C)C)n1 (configuration not stated) | 9.19 nM
Cc1nc(-c2cn3c(n2)-c2ccc(-c4ccnn4C4CCCN(Cc5ccccc5)C4)cc2OCC3)n(C(C)C)n1 (configuration not stated) | 186 nM

Continued, values first:

IC50 | Compound
11.4 nM | Cc1nc(-c2cn3c(n2)-c2cc(-c4ccnn4[C@@H]4CCCN(C(C)C)C4)c(F)cc2OCC3)n(C(C)C)n1
97.9 nM and 47.8 nM | COc1cc2c(cc1[C@@H](C)N1CCN(C(C)(C)C)CC1)-c1nc(-c3nc(C)nn3C(C)C)cn1CCO2
247 nM | Cc1nc(-c2cn3c(n2)-c2cc([C@H](C)N4CCN(C(C)(C)C)CC4)c(F)cc2OCC3)n(C(C)C)n1
12.9 nM | CC(C)n1ncnc1-c1cn2c(n1)-c1cnc(N3CCCC3CN3CCCC3)cc1OCC2 (configuration not stated)
372 nM | Cc1nc(-c2cn3c(n2)-c2cc([C@@H](C)N4CCN(C(C)(C)C)CC4)c(F)cc2OCC3)n(C(C)C)n1
207 nM | Cc1nc(-c2cn3c(n2)-c2cc(-c4ccnn4[C@H]4CCCN(C5COC5)C4)c(F)cc2OCC3)n(C(C)C)n1
74.8 nM and 49.2 nM | Cc1nc(-c2cn3c(n2)-c2ccc(N4CCCC4C4CCN(CC(C)(C)O)CC4)cc2OCC3)n(C(C)C)n1 (configuration not stated)
20 nM and 105 nM | Cc1nc(-c2cn3c(n2)-c2cc(-c4cnn(C)c4C4CCCN(C(C)C)C4)c(F)cc2OCC3)n(C(C)C)n1 (configuration not stated)
10.8 nM | Cc1nc(-c2cn3c(n2)-c2ccc(-c4ccnn4[C@@H]4CCCN(C(C)(C)CO)C4)cc2OCC3)n(C(C)C)n1
86.8 nM | CCN1CCN(C(C)c2cc3c(cc2F)OCCn2cc(-c4nc(C)nn4C(C)C)nc2-3)CC1 (configuration not stated)
6.2 nM | Cc1nc(-c2cn3c(n2)-c2ccc(OC4(C)CNC4)cc2OCC3)n(C(C)C)n1
12.9 nM and 5.23 nM and 16.8 nM | Cc1nc(-c2cn3c(n2)-c2ccc(N4CCCC45CCCN(C)C5)cc2OCC3)n(C(C)C)n1 (configuration not stated)
36.7 nM | Cc1nc(-c2cn3c(n2)-c2cc(-c4ccnn4[C@@H]4CCCN(C5COC5)C4)c(F)cc2OCC3)n(C(C)C)n1
250 nM | Cc1nc(-c2cn3c(n2)-c2cc(C(C)N4CCN(C(C)(C)C)CC4)c(F)cc2OCC3)n(C(C)C)n1 (configuration not stated)
20.7 nM | Cc1nc(-c2cn3c(n2)-c2ccc(-c4cnn(C)c4[C@H]4CCCN(C(C)C)C4)cc2OCC3)n(C(C)C)n1
126 nM | Cc1nc(-c2cn3c(n2)-c2cc(C(C)N4CCN(C5COC5)CC4)c(C)cc2OCC3)n(C(C)C)n1 (configuration not stated)

IC50 | Compound
9.19 nM | Cc1nc(-c2cn3c(n2)-c2ccc(OC4(C)CCN(C(C)C)C4)cc2OCC3)n(C(C)C)n1 (configuration not stated)
80.4 nM | Cc1nc(-c2cn3c(n2)-c2cc([C@@H](C)N4CCN(C(C)(C)C)CC4)ncc2OCC3)n(C(C)C)n1
1.85 nM and 1.9 nM | Cc1nc(-c2cn3c(n2)-c2cnc(N4CCCC4C4CCCCN4C)cc2OCC3)n(CC(F)(F)F)n1 (configuration not stated)
191 nM | Cc1nc(-c2cn3c(n2)-c2cc(C(=O)N4CCN(C(C)(C)C)CC4)c(F)cc2OCC3)n(C(C)C)n1
242 nM | CC(C)n1ncnc1-c1cn2c(n1)-c1ccc(-c3ccccc3S(N)(=O)=O)cc1OCC2
112 nM | Cc1nc(-c2cn3c(n2)-c2ccc(-c4cnn(C(C)C)c4CN4CCN(C)CC4)cc2OCC3)n(C(C)C)n1
64.5 nM and 65.8 nM and 54.8 nM | CCN(CC)C1CCOC(c2c(-c3ccc4c(c3)OCCn3cc(-c5nc(C)nn5C(C)C)nc3-4)cnn2C)C1 (configuration not stated)
28.4 nM | Cc1nc(-c2cn3c(n2)-c2ccc(-c4cn(C)nc4C4CCCN(C(C)C)C4)cc2OCC3)n(C(C)C)n1 (configuration not stated)
13.9 nM | CC(C)n1ncnc1-c1cn2c(n1)-c1cnc(N3CCCC3C3CCN(C)CC3)cc1OCC2 (configuration not stated)
32.8 nM | Cc1nc(-c2cn3c(n2)-c2ccc(OC4CC(C)CN(C(C)C)C4)cc2OCC3)n(C(C)C)n1 (configuration not stated)
62 nM and 90.9 nM | COc1cc2c(cc1[C@H](C)N1CCN(C(C)(C)C)CC1)-c1nc(-c3nc(C)nn3C(C)C)cn1CCO2
24.9 nM | CC(C)n1ncnc1-c1cn2c(n1)-c1cc(C(=O)N3CCN(C(C)(C)C)CC3)ccc1OCC2
72.8 nM | Cc1nc(-c2cn3c(n2)-c2ccc(N4CCCC45CCCN(C(C)C)C5)cc2OCC3)n(C(C)C)n1 (configuration not stated)
145 nM | Cc1nc(-c2cn3c(n2)-c2ccc(-c4cnc(C)n4C4CCCN(C(C)C)C4)cc2OCC3)n(C(C)C)n1 (configuration not stated)
217 nM | Cc1nc(-c2cn3c(n2)-c2cc([C@H](C)N4CCN(C(C)(C)C)CC4)ncc2OCC3)n(C(C)C)n1
38.5 nM | CC(C)n1nc(CO)nc1-c1cn2c(n1)-c1ccc(-c3ccnn3C3CCN(C)CC3)cc1OCC2
